These results are taken from patent US4058520A, “Aminoalkylthiopyridazine compounds” (The Dow Chemical Company, priority 1976, dated 1977).

Read-outs that look alike come from different tables or passages of the source.

Assay [1] relates to ADP induced aggregation of blood platelets (rat platelet rich plasma). The assay can be described thus: inhibition of ADP induced platelet aggregation in vitro (rat platelet rich plasma, change in optical density; Born). The conditions noted are these: for IC50: 10 min, read-out: IC50 ADP (concentration at which ADP induced platelet aggregation is inhibited by 50%). It counts as cell-based. The protocol:
Platelet aggregation was initiated in vitro by 0.125 to 0.25 mg/ml of ADP. Rat blood was collected into 3.0% trisodium citrate solution (1:10) by cardiac puncture under methoxyfurane anesthesia. The blood was centrifuged at 120 g for 10 minutes at room temperature and the supernatant platelet rich plasma was removed and diluted with lactated Ringer's solution containing the pyridazine aggregation inhibiting agent (1.0:1.5). Samples of 1.0 ml were pipetted into plastic test tubes and incubated for 10 minutes. Plastic equipment was used for all procedures. The concentration of the pyridazine compound in micromoles inhibiting ADP aggregation by 50% (IC50) was determined using changes in optical density as an indicium of platelet aggregation.
*Concentration in micromoles at which ADP induced platelet aggregation is […]

Assay [2] relates to rootknot nematode. The assay can be described thus: killing and control of rootknot nematode. It counts as in vivo. The conditions noted are these: 2.4 pounds per 100 cu. ft. of soil.
The test system of assay [3] is tobacco black root rot. The assay can be described thus: fungicide, killing and control of tobacco black root rot. It counts as in vivo. The conditions noted are these: 25 parts per million.
The subject of assay [4] is apple scab. The assay can be described thus: effectiveness against apple scab. The conditions noted are these: 400 parts per million. It counts as in vivo.
Assay [5] relates to platelet aggregation / emboli formed in response to ADP. Kind of assay: protection of mice from ADP challenge (inclined screen). It counts as in vivo. The conditions noted are these: of ten mice; 60 mgs per kilogram orally; ADP via tail vein one hour after. Here is the method:
Emboli formed in the vascular system of mice in response to the administration of ADP cause a stroke-like response that prevents mice from staying on an inclined screen. To illustrate the platelet aggregation inhibition effect of the aminoalkylthiopyridazines, ten mice were dosed orally with 60 mgs per kilogram of body weight of the compound 6-chloro-3-(2-diisopropylamino)ethylthio)pyridazine. One hour after compound administration, the mice were challenged with ADP (0.05 M mole/kg) by injection via the tail vein and placed on an inclined screen. The unprotected control mice were unable to maintain their position on the screen.

Setting [6] is: rat platelet rich plasma, 0.125 to 0.25 mg/ml of ADP, incubated 10 minutes.

For the molecule `Clc1ccc(SCCN2CCCCCC2)nn1` [3-Chloro-6-(2-(hexamethyleneimino)ethylthio)pyridazine], the IC50 in assay [1] (setting [6]) turned out to be 2430 µM. With `Clc1ccc(SCCN2CCOCC2)nn1` [3-Chloro-6-(2-(4-morpholinyl)ethylthio)pyridazine], the “effective in the killing and control of rootknot nematode” value in assay [2] worked out at 90%. The IC50 in assay [1] (Rattus norvegicus, Platelet) was found to be 2600 µM. For `CCN(CC)CCCSc1ccc(Cl)nn1` [3-Chloro-6-(3-(diethylamino)propylthio)pyridazine], the “effective as a fungicide in the killing and control of tobacco black root rot” value in assay [3] is 100%. The IC50 in assay [1] (setting [6]) was 3710 µM. Take `CN(C)CCCSc1ccc(Cl)nn1` [3-Chloro-6-(3-dimethylamino)propylthio)pyridazinium methane sulfonate]: in assay [1] (setting [6]), the IC50 amounted to 2400 µM. Still for that read-out and setting: for `Clc1ccc(SCCN2CCCCC2)nn1` [3-Chloro-6-(2-(1-piperidinyl)ethylthio)pyridazine] the value was 3300 µM. The same measure, in the same setting: for `Clc1ccc(SCCCN2CCOCC2)nn1` [3-Chloro-6-(3-(4-morpholinyl)propylthio)pyridazine] the value was 10500 µM.

Take `c1cc(SCCN2CCOCC2)nnc1SCCN1CCOCC1` [3,6-Bis(2-(4-morpholinyl)ethylthio)pyridazine]: the “effective against apple scab” value in assay [4] is reported as 90%. Besides, the IC50 in assay [1] (setting [6]) amounted to 13800 µM.

For the molecule `CC(C)N(CCSc1ccc(Cl)nn1)C(C)C` [6-Chloro-3-(2-(diisopropylamino)ethylthio)pyridazine], the “mice protected from the ADP challenge and remaining on the screen” value in assay [5] came out at 10 mice. Moreover, in assay [1] (setting [6]), the IC50 was determined as 140 µM. The “platelet aggregation inhibiting activity (in words)” value in assay [1] (Table I data) was “highly effective”.
